Assay results as given in ChEMBL document CHEMBL2086262, “Ligand-based designing, in silico screening, and biological evaluation of new potent fructose-1,6-bisphosphatase (FBPase) inhibitors” (Eur J Med Chem, 2012).

Assay: Inhibition of human recombinant FBPase using fructose-1,6-biphosphate as substrate incubated for 3 mins prior to substrate addition by spectrophotometric analysis
With `CCOc1cc2nc(CN)nc(Nc3cccc(-c4csc(C)n4)c3)c2cc1OCC` the IC50 was 1500 nM.
With `O=C(O)CCc1c(C(=O)O)[nH]c2cc(Cl)cc(Cl)c12` the IC50 was ≥ 2500 nM.
In the case of `COc1cc2ncnc(Nc3cccc(-c4csc(C)n4)c3)c2cc1OC(C)C`, the IC50 is reported as > 10000 nM.
`CCOc1cc2nc(CCCCl)nc(Nc3cccc(-c4csc(C)n4)c3)c2cc1OCC` gave an IC50 of 4100 nM.
Work on `CCOc1cc2ncnc(Nc3cccc(-c4cccnc4)c3)c2cc1OCC` yielded an IC50 of 1400 nM.
In the case of `CCOc1cc2ncnc(Nc3cccc(-c4csc(C)n4)c3)c2cc1OC`, the IC50 is reported as 3400 nM.
For `CCOc1cc2ncnc(Nc3cccc(-c4nc(C)cs4)c3)c2cc1OCC`, the IC50 was 650 nM.
`CCOc1cc2ncnc(Nc3cccc(F)c3)c2cc1OCC` showed an IC50 of 9200 nM.
For `CCCc1nc(Nc2cccc(-c3csc(C)n3)c2)c2cc(OCC)c(OCC)cc2n1`, the IC50 was 1400 nM.
With `CCOc1cc2ncnc(Nc3cccc(-c4cncnc4)c3)c2cc1OCC` the IC50 was 1200 nM.
For `CCOc1cc2ncnc(Nc3cccc(-c4csc(C5CC5)n4)c3)c2cc1OCC`, the IC50 was 830 nM.
With `CCOc1cc2ncnc(Nc3cccc(-c4cncs4)c3)c2cc1OCC` the IC50 was 980 nM.
`CCOc1cc2ncnc(Nc3cccc(Br)c3)c2cc1OCC` gave an IC50 of 1700 nM.
Work on `CCOc1cc2nc(CCCl)nc(Nc3cccc(-c4csc(C)n4)c3)c2cc1OCC` yielded an IC50 of 1000 nM.
With `CCOc1cc2ncnc(Nc3cccc(-c4ccco4)c3)c2cc1OCC` the IC50 was 1400 nM.
For `CCOc1cc2nc(CN3CCCC3)nc(Nc3cccc(-c4csc(C)n4)c3)c2cc1OCC`, the IC50 was 6100 nM.
With `O=C(O)CCCc1c(C(=O)O)[nH]c2cc(Cl)cc(Cl)c12` the IC50 was 1000 nM.
For `CCCOc1cc2ncnc(Nc3cccc(-c4csc(C)n4)c3)c2cc1OC`, the IC50 was ≥ 5600 nM.
`CCOc1cc2ncnc(Nc3cc(-c4csc(C)n4)ccc3Cl)c2cc1OCC` showed an IC50 of 1700 nM.
In the case of `CCOc1cc2ncnc(Nc3cc(-c4csc(C)n4)cc(C(F)(F)F)c3)c2cc1OCC`, the IC50 is reported as > 10000 nM.
`CCOc1cc2ncnc(Nc3cccc(Cl)c3)c2cc1OCC` showed an IC50 of 1600 nM.
With `CCOc1cc2nc(Cc3ccccc3)nc(Nc3cccc(-c4csc(C)n4)c3)c2cc1OCC` the IC50 was > 10000 nM.
In the case of `COCCOc1cc2c(Nc3cccc(-c4csc(C)n4)c3)ncnc2cc1OC`, the IC50 is reported as > 10000 nM.
For `C#Cc1cccc(Nc2ncnc3cc(OC)c(OC)cc23)c1`, the IC50 was 900 nM.
With `CCOc1cc2nc(CCN)nc(Nc3cccc(-c4csc(C)n4)c3)c2cc1OCC` the IC50 was 220 nM.
For `CCCOc1cc2c(Nc3cccc(-c4csc(C)n4)c3)ncnc2cc1OC`, the IC50 was > 10000 nM.
Work on `CCNCc1nc(Nc2cccc(-c3csc(C)n3)c2)c2cc(OCC)c(OCC)cc2n1` yielded an IC50 of 6000 nM.
For `CCN(CC)c1nc(Nc2cccc(Br)c2)c2cc(OC)c(OC)cc2n1`, the IC50 was > 10000 nM.
Molecule `CCOc1cc2ncnc(Nc3cccc(-c4nc(C(N)=O)cs4)c3)c2cc1OCC` has an IC50 of 830 nM.
In the case of `CCOc1cc2ncnc(Nc3cccc(-c4ccccn4)c3)c2cc1OCC`, the IC50 is reported as 390 nM.
Molecule `CCOc1cc2nc(CS(C)(=O)=O)nc(Nc3cccc(-c4csc(C)n4)c3)c2cc1OCC` has an IC50 of 2100 nM.
Molecule `O=C(O)CCCCc1c(C(=O)O)[nH]c2cc(Cl)cc(Cl)c12` has an IC50 of 1200 nM.
With `CCOc1cc2nc(Cl)nc(Nc3cccc(-c4csc(C)n4)c3)c2cc1OCC` the IC50 was 2600 nM.
`CCOc1cc2nc(CCl)nc(Nc3cccc(-c4csc(C)n4)c3)c2cc1OCC` gave an IC50 of 870 nM.
With `COCCOc1cc2c(Nc3cccc(Br)c3)ncnc2cc1OC` the IC50 was 5500 nM.
With `CCOc1cc2nc(C(F)(F)F)nc(Nc3cccc(-c4csc(C)n4)c3)c2cc1OCC` the IC50 was > 10000 nM.
With `O=C(O)c1ccc2c(Nc3cccc(Br)c3)ncnc2c1` the IC50 was > 10000 nM.
For `CCC(C)Oc1cc2ncnc(Nc3cccc(-c4csc(C)n4)c3)c2cc1OC` (stereo not given), the IC50 was > 10000 nM.
`CCOc1cc2ncnc(Nc3cccc(I)c3)c2cc1OCC` gave an IC50 of 2100 nM.
With `CCOc1cc2ncnc(Nc3cc(-c4csc(C)n4)ccc3CC)c2cc1OCC` the IC50 was 2100 nM.
`CCOc1nc(-c2cccc(Nc3ncnc4cc(OCC)c(OCC)cc34)c2)cs1` showed an IC50 of 6100 nM.
With `Nc1cc2c(Nc3cccc(Br)c3)ncnc2cc1Cl` the IC50 was > 10000 nM.
For `CCOc1cc2ncnc(Nc3cccc(-c4ccccc4C)c3)c2cc1OCC`, the IC50 was > 10000 nM.
In the case of `CCOc1cc2ncnc(Nc3cc(-c4csc(C)n4)ccc3C)c2cc1OCC`, the IC50 is reported as 1800 nM.
For `O=C(O)CCc1c(CO)[nH]c2cc(Cl)cc(Cl)c12`, the IC50 was > 10000 nM.
